ChEMBL document CHEMBL1201862, “PubChem BioAssay data set” (2004)
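Briefly, cells in 96-well plates were exposed to five compound concentrations for 48 h, and endpoints were estimated by linear interpolation. The concentration for 50% growth inhibition is given as GI50.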 The source made the active and inactive calls. Rule as the data show it: active = GI50 up to about 1.1 µM and inactive = higher.

Experiments:
Assay in all cases: NCI tumour cell line growth inhibition, 48 h
[1] = system: COLO 205
[2] = system: SK-OV-3
[3] = system: OVCAR-8
[4] = system: M14
[5] = system: CCRF-CEM
[6] = system: HCC 2998
[7] = system: SN12C
[8] = system: EKVX
[9] = system: HOP-62
[10] = system: Malme-3M
[11] = system: SNB-19
[12] = system: HCT-15
[13] = system: UO-31
[14] = system: MDA-MB-435
[15] = system: NCI/ADR-RES
[16] = system: PC-3
[17] = system: CAKI-1
[18] = system: SF-268
[19] = system: KM12
[20] = system: UACC-257
[21] = system: HOP-92
[22] = system: IGROV-1
[23] = system: SK-MEL-28
[24] = system: RPMI-8226
[25] = system: MOLT-4
[26] = system: DU-145
[27] = system: A549
[28] = system: Hs-578T
[29] = system: HCT-116
[30] = system: NCI-H522
[31] = system: OVCAR-4
[32] = system: OVCAR-5
[33] = system: MDA-N
[34] = system: MDA-MB-231
[35] = system: NCI-H460
[36] = system: ACHN
[37] = system: MCF7
[38] = system: SF-539
[39] = system: SW-620
[40] = system: SK-MEL-5
[41] = system: K562
[42] = system: NCI-H226
[43] = system: TK-10
[44] = system: UACC-62
[45] = system: HT-29
[46] = system: OVCAR-3
[47] = system: SF-295
[48] = system: BT-549
[49] = system: HL-60
[50] = system: T47D
[51] = system: SK-MEL-2
[52] = system: LOX IMVI
[53] = system: NCI-H23
[54] = system: SNB-75
[55] = system: A498
[56] = system: U-251
[57] = system: 786-0
[58] = system: RXF 393

Measured: GI50

NC(=S)SCCC(=O)O
inactive: [1] > 100 µM | [2] > 100 µM | [3] > 100 µM | [4] > 100 µM | [5] > 100 µM | [6] > 100 µM | [7] > 100 µM | [8] > 100 µM | [9] > 100 µM | [10] > 100 µM | [11] > 100 µM | [13] > 100 µM | [14] > 100 µM | [15] > 100 µM | [16] > 100 µM | [17] > 100 µM | [18] > 100 µM | [19] > 100 µM | [20] > 100 µM | [21] > 100 µM | [22] > 100 µM | [23] > 100 µM | [24] > 100 µM | [25] > 100 µM | [26] > 100 µM | [27] > 100 µM | [28] > 100 µM | [29] > 100 µM | [30] > 100 µM | [31] > 100 µM | [32] > 100 µM | [33] > 100 µM | [34] > 100 µM | [35] > 100 µM | [36] > 100 µM | [37] > 100 µM | [38] > 100 µM | [39] > 100 µM | [40] > 100 µM | [41] > 100 µM | [42] > 100 µM | [43] > 100 µM | [44] > 100 µM | [45] > 100 µM | [46] > 100 µM | [47] > 100 µM | [48] > 100 µM | [49] > 100 µM | [50] 43.2 µM | [51] > 100 µM | [52] > 100 µM | [53] > 100 µM | [54] > 100 µM | [55] > 100 µM | [56] > 100 µM | [57] > 100 µM
> 100 µM: [12]

CC(C)(C)OC(=O)NCCCCC(N)C(N)=O (centres undefined)
> 100 µM: [12]
inactive: [1] > 100 µM | [2] 54.7 µM | [3] > 100 µM | [4] > 100 µM | [5] > 100 µM | [6] > 100 µM | [7] > 100 µM | [8] > 100 µM | [9] > 100 µM | [10] > 100 µM | [11] > 100 µM | [13] > 100 µM | [14] > 100 µM | [15] > 100 µM | [16] > 100 µM | [17] > 100 µM | [18] > 100 µM | [19] > 100 µM | [20] > 100 µM | [21] > 100 µM | [22] > 100 µM | [23] > 100 µM | [24] > 100 µM | [25] > 100 µM | [26] > 100 µM | [27] > 100 µM | [28] 45.7 µM | [29] > 100 µM | [30] > 100 µM | [31] > 100 µM | [32] > 100 µM | [33] > 100 µM | [34] > 100 µM | [35] > 100 µM | [36] > 100 µM | [37] > 100 µM | [38] > 100 µM | [39] > 100 µM | [40] 78.7 µM | [41] > 100 µM | [42] > 100 µM | [43] > 100 µM | [44] 7.46 µM | [45] > 100 µM | [46] > 100 µM | [47] > 100 µM | [48] > 100 µM | [50] > 100 µM | [58] > 100 µM | [51] > 100 µM | [52] > 100 µM | [53] > 100 µM | [54] > 100 µM | [55] > 100 µM | [56] > 100 µM | [57] > 100 µM

Cc1ccc(S(=O)(=O)NNC2(NS(=O)(=O)c3ccc(Cl)cc3)C(Cl)=C(Cl)C(=O)c3ccccc32)cc1 (centres undefined)
inactive: [1] 18.1 µM | [2] 16.9 µM | [3] 21.6 µM | [4] 19 µM | [5] 22.9 µM | [6] 18.5 µM | [7] 17 µM | [8] 15.5 µM | [9] 21.3 µM | [10] 17.3 µM | [11] 16.3 µM | [13] 26.8 µM | [14] 18.8 µM | [15] 23.1 µM | [16] 16.7 µM | [17] 18.4 µM | [18] 14 µM | [19] 17.3 µM | [20] 17.6 µM | [21] 17.3 µM | [22] 14.7 µM | [23] 25.7 µM | [24] 5.4 µM | [25] 25.6 µM | [26] 18.5 µM | [27] 16.9 µM | [28] 17.2 µM | [29] 17.9 µM | [30] 21.7 µM | [31] 16.1 µM | [32] 18.3 µM | [33] 17.4 µM | [34] 19 µM | [35] 17.9 µM | [36] 16.1 µM | [37] 16.4 µM | [38] 21.2 µM | [39] 26 µM | [40] 15.2 µM | [41] 7.93 µM | [43] 16.8 µM | [44] 16.6 µM | [45] 19.1 µM | [46] 16.4 µM | [47] 20.9 µM | [48] 14.9 µM | [49] 14.4 µM | [50] 28.3 µM | [58] 17 µM | [51] 20 µM | [52] 23.5 µM | [53] 15 µM | [55] 17.8 µM | [56] 21.8 µM | [57] 14.1 µM
24.4 µM: [12]

Cc1ccc(S(=O)(=O)NC(CN)C(=O)O)cc1 (centres undefined)
> 100 µM: [12]
inactive: [1] > 100 µM | [2] > 100 µM | [3] > 100 µM | [4] > 100 µM | [8] > 100 µM | [9] > 100 µM | [10] > 100 µM | [11] > 100 µM | [13] > 100 µM | [14] > 100 µM | [15] > 100 µM | [16] > 100 µM | [17] > 100 µM | [18] > 100 µM | [19] > 100 µM | [20] > 100 µM | [21] > 100 µM | [22] > 100 µM | [23] > 100 µM | [24] > 100 µM | [25] 36.8 µM | [26] > 100 µM | [27] > 100 µM | [28] > 100 µM | [29] > 100 µM | [30] > 100 µM | [31] > 100 µM | [32] > 100 µM | [33] > 100 µM | [34] > 100 µM | [35] > 100 µM | [36] > 100 µM | [37] > 100 µM | [38] > 100 µM | [39] > 100 µM | [40] > 100 µM | [42] > 100 µM | [43] > 100 µM | [44] > 100 µM | [45] > 100 µM | [46] > 100 µM | [47] > 100 µM | [48] > 100 µM | [50] > 100 µM | [58] > 100 µM | [51] > 100 µM | [52] > 100 µM | [53] > 100 µM | [54] > 100 µM | [55] > 100 µM | [56] > 100 µM | [57] > 100 µM

Cc1nc(/C(=N\n2cnnc2)Nc2ccc(Br)cc2)no1
> 100 µM: [12]
inactive: [1] > 100 µM | [2] > 100 µM | [3] > 100 µM | [4] > 100 µM | [5] > 100 µM | [6] > 100 µM | [8] > 100 µM | [9] > 100 µM | [10] > 100 µM | [11] > 100 µM | [13] > 100 µM | [14] > 100 µM | [15] > 100 µM | [16] > 100 µM | [17] > 100 µM | [19] > 100 µM | [20] > 100 µM | [21] > 100 µM | [22] > 100 µM | [23] > 100 µM | [24] > 100 µM | [25] > 100 µM | [26] > 100 µM | [27] > 100 µM | [28] > 100 µM | [29] > 100 µM | [30] > 100 µM | [31] > 100 µM | [32] > 100 µM | [33] > 100 µM | [34] > 100 µM | [35] > 100 µM | [36] > 100 µM | [37] > 100 µM | [39] > 100 µM | [40] > 100 µM | [41] 57.1 µM | [44] > 100 µM | [45] > 100 µM | [46] > 100 µM | [47] > 100 µM | [48] > 100 µM | [50] > 100 µM | [58] > 100 µM | [51] > 100 µM | [53] > 100 µM | [54] 66.7 µM | [55] > 100 µM | [56] > 100 µM | [57] > 100 µM
